In one assay the test system is AR 239. Nature of the assay: Nitric oxide pretreatment with planktonic bacteria. To be noted: AR 239, antibiotic 2000 µg/mL, NO-pretreatment 25% MIC 4 h. The class given is cell-based, P. aeruginosa. The method, then: (§1) After exposure, wells were serially diluted in sterile MilliQ water and spiral plated on TSA. Viability was assessed by colony counting.
In another assay the test system is AR 237. Description: Nitric oxide pretreatment with planktonic bacteria. The class given is cell-based, P. aeruginosa. To be noted: AR 237, antibiotic 0.625 µg/mL, NO-pretreatment 25% MIC 4 h. The method, then:
as §1

Assay [1] relates to PAK. Nature of the assay: Nitric oxide pretreatment with planktonic bacteria. The note with it: antibiotic 2 µg/mL, NO-pretreatment 25% MIC 4 h. The format is cell-based, Pseudomonas aeruginosa. The protocol:
as §1

The subject of assay [2] is PAK. Nature of the assay: Serial passaging resistance assay. The class given is cell-based, Pseudomonas aeruginosa. The protocol:
Bacteria at a final concentration of 10^6 CFU/mL in TSB were incubated with serial dilutions of COS/NO and/or tobramycin for 24 h. Growth was assessed by measuring absorbance at 600 nm. The wells that had the highest concentration of test agent and an OD600 corresponding to more than 10^8 CFU/mL were diluted to 10^6 cfu/mL in TSB and incubated with fresh solutions of COS/NO or tobramycin for 24 h. A single passage was defined as one exposure, incubation, and subsequent dilution. Bacteria were passaged for up to 70 days.

The next assay relates to AR 239 biofilm. Nature of the assay: Biofilm pretreatment with nitric oxide. The class given is cell-based, P. aeruginosa. To be noted: tobramycin 5000 µg/mL, NO-pretreatment 4 h. The protocol:
(§2) Bacteria were cultured to a concentration of 10^8 CFU/mL in TSB and diluted to 10^6 CFU/mL in 200 µL TSB in a 96 well plate. Plates were incubated with shaking for 3 days until a non-surface attached viscous aggregate formed that was easily separated from growth medium. Biofilms (100 µL) were removed, gently injected into PBS (200 µL) to remove loosely adhered planktonic cells, and added to a sterile 96 well plate. To the wells, PBS or test agent dissolved in PBS (100 µL) was added and incubated with shaking for 24 h. The biofilm (100 µL) was removed from the well plate, added to 900 µL sterile MilliQ water, and disrupted with pipetting and vortexing. Disrupted biofilms were serially diluted and spiral plated on TSA. Viability was assessed with colony counting. The minimum biofilm eradication concentration (MBEC) was defined as the lowest concentration of test agent required to reduce viability by 5-log (i.e., 10^8 to 10^3 CFU/mL).
(§3) The biofilm was then removed from its 96 well plate, added to a new 96 well plate containing tobramycin dissolved in PBS (100 µL), and incubated for 20 h. The biofilm was disrupted in 900 µL sterile MilliQ water with pipetting and vortexing, serially diluted, and spiral plated on TSA. Viability was assessed with colony counting.

The subject of another assay is AR 229 biofilm. Description: Biofilm pretreatment with nitric oxide. The class given is cell-based, P. aeruginosa. To be noted: tobramycin 2 µg/mL, NO-pretreatment 4 h. The method, then: as §2, §3
For another assay, the system named is AR 237 biofilm. Nature of the assay: Biofilm pretreatment with nitric oxide. The note with it: tobramycin 1 µg/mL, NO-pretreatment 4 h. The format is cell-based, P. aeruginosa. The method, then:
as §2, §3

A further assay relates to AR 230 biofilm. Nature of the assay: Biofilm pretreatment with nitric oxide. The class given is cell-based, P. aeruginosa. The note with it: tobramycin 64 µg/mL, NO-pretreatment 4 h. The method, then:
as §2, §3

Converted amounts (≈) assume the structure as drawn.

Regarding `NC[C@H]1O[C@H](O[C@H]2[C@H](O)[C@@H](O[C@H]3O[C@H](CO)[C@@H](O)[C@H](N)[C@H]3O)[C@H](N)C[C@@H]2N)[C@H](N)C[C@@H]1O` [Tobramycin], the Classification result with AR 239, in the assay on AR 237, in the assay with PAK [1], with AR 239 biofilm, in the assay on AR 229 biofilm and in the assay with AR 237 biofilm was “Synergistic” throughout. For the same compound, in the assay on AR 230 biofilm, the Classification entry is given as “Synergistic”. The figures for the “Log Difference in bacteria viability with vs without NO-pretreatment” value with AR 239, in the assay on AR 237 and with PAK [1] were 2.27 log, 3.70 log and 3.00 log, respectively. In addition, the development of tobramycin-resistance entry in the assay with PAK [2] (P. aeruginosa, concomitant delivery with COS/NO at 25% of its MIC) is “slowing or prevention”. Moreover, the “change of tobramycin MIC on parallel exposures” value with PAK [2] (P. aeruginosa, tobramycin alone, serial passages) is listed as “increases”. Moreover, the MICn in the assay on PAK [2] (PAK, after n = 10 passages) turned out to be 16 µg/mL. Also, in the assay with PAK [2] (Pseudomonas aeruginosa, read-out: MIC0), the MIC was 2 µg/mL (≈ 4.28 µM). The “Log Difference in biofilm viability with vs without NO-pretreatment” value with AR 239 biofilm is 4.90 log; with AR 229 biofilm, 4.39 log; with AR 237 biofilm, 4.85 log; in the assay on AR 230 biofilm, 5.15 log.

The record behind these values is patent publication US20230082968A1, “EXOGENOUS NITRIC OXIDE FOR IMPROVED SUSCEPTIBILITY AND LOWERED ANTIBIOTIC RESISTANCE IN RESISTANT RESPIRATORY BACTERIA” (The University of North Carolina at Chapel Hill, priority 2020, published 2023).
